{"source": "patent US8906678B2", "about": "“Use of markers of undifferentiated pluripotent stem cell” (Agency for Science, Technology and Research, priority 2010, dated 2014)", "assay_type_in_all_cases": "cell-based, human", "key": {"HES-3 cells": {"tested_on": "HES-3 cells", "settings": "for killing efficiency on hESC, D-form vs L-form: 100 μm, after 120 hr; for relative viability: 100 μM", "protocol": "Viability was determined using Propidium Iodide (PI) assay, where cells were trypsinized and resuspended in binding buffer (10 mM HEPES/NaOH, 140 mM NaCl and 2.5 mM CaCl2) containing 1.25 mg/ml of PI. The cells were incubated at room temperature for 15 min before analyzing on the flow cytometer."}, "[1]": {"tested_on": "PHB surface expression in HES-3", "experiment": "SU5402 effect on PHB surface expression, flow cytometry, HES-3", "settings": "20 μM or 30 μM SU5402 for 7 days", "protocol": "Cells were harvested as single cell suspensions using trypsin, resuspended at 2×10^5 cells per 10 μl volume in 1% bovine serum albumin (BSA)/PBS and incubated for 45 min with each mAb clone (100 ul culture supernatant) or monoclonal TRA-1-60 antibody. (12.5 ug/ml; Chemicon, Temecula, Calif. http://www.chemicon.com). Cells were then washed with cold 1% BSA/PBS, and further incubated for 15 min with 1:500 dilution of fluorescein isothiocyanate (FITC)-conjugated goat α-mouse antibody (DAKO, Glostrup, Denmark, http://www.dako.com). After incubation, the cells were again washed and resuspended in 1% BSA/PBS for analysis on a FACScan (Becton, Dickinson and Company, Franklin Lakes, N.J., http://www.bd.com).\nTo observe the effect of SU5402 on expression of PHB in hESC, cells were seeded and allowed to adhere for 24 h before culturing them in the presence of SU5402 at concentrations of 20 μM or 30 μM for 7 days. Control cells were cultured similarly in the presence of the vehicle control, DMSO instead. Cells were subsequently harvested for flow cytometry analysis."}, "[2]": {"tested_on": "MAPK pathway (ERK phosphorylation) in HES-3 cultures", "experiment": "SU5402 inhibitor study, ERK phosphorylation by western blot", "settings": "20 μM and 30 μM SU5402 for 2 h, then 10 ng/ml FGF-2 for 15 min", "protocol": "hESC cultured under various conditions were lysed and clarified via centrifugation before quantifying with the DC protein assay (Biorad, http://www.bio-rad.com). 20 ug of total protein from each condition was resolved and transferred onto membrane as described above. The resolved proteins were then immunoblotted with anti-actin (1:10,000; Abcam, http://www.abcam.com), anti-total ERK (1:1000; Sigma Aldrich) and anti-phospho-ERK (1:5000; Sigma Aldrich) antibodies. The protein bands were visualized using either ECL Plus detection reagent (Amersham, GE Healthcare, UK, http://www.gehealthcare.com) or LI-COR ODYSSY imaging system (LI-COR Biosciences, Nebraska, http://www.licor.com).\nEfficacy of SU5402 (Calbiochem, San Diego, USA, http://www.emdbiosciences.com) was determined by culturing hESC in absence of FGF-2 for 5 days, followed by incubating with 20 μM or 30 μM of SU5402 for 2 h before inducing the treated cultures with FGF-2 for 15 min. Cells were then lysed and the lysates were analyzed using western blot analysis."}, "ESIMR90": {"tested_on": "ESIMR90", "protocol": "Induced pluripotent stem cell line, ESIMR90, derived from lung fibroblasts, was obtained from James Thomson (18). ESIMR90 was cultured as per hESC cultures, with the exception of supplementing cultures with 100 ng/ml of FGF-2. For FGF-2 starved cultures, cells were maintained without FGF-2 as mentioned above. Viability was determined using Propidium Iodide (PI) assay, where cells were trypsinized and resuspended in binding buffer (10 mM HEPES/NaOH, 140 mM NaCl and 2.5 mM CaCl2) containing 1.25 mg/ml of PI. The cells were incubated at room temperature for 15 min before analyzing on the flow cytometer."}, "IMR-90 cells": {"tested_on": "IMR-90 cells", "experiment": "Growth curve of IMR-90 cells (specificity control)", "protocol": "Human fetal lung fibroblast cell line, IMR-90 (CCL-186), was purchased from American Type Culture Collection and cultured according to the supplier's instructions.\n(§1) HES-3 and IMR-90 cells were cultured in 24 wells culture dishes supplemented with either 100 μM PHB-targeting pro-apoptotic peptide (CKGGRAKDC-GG-D(KLAKLAK)2 (SEQ ID NO:3)>90% purity; Sigma Aldrich) or 0.2% DMSO as control. Cultures were induced every 48 h and harvested daily for cell count. Cell numbers were determined using NucleoCounter according to the manufacturer's recommendations (Chemometec, Denmark, http://http://www.chemometec.com). The growth curves were generated by plotting viable cell number vs time. Specific growth rate, μ, was calculated as the gradient of the exponential phase, determined by plotting ln(cell number) vs time. Triplicates were done for each set of data."}, "hESC [3]": {"tested_on": "hESC", "experiment": "TUNEL assay (nuclear DNA fragmentation)", "settings": "after 48 hours", "protocol": "Nuclear DNA fragmentation was measured via a TUNEL (Terminal deoxynucleotidyl transferase dUTP nick end labeling) assay kit (Promega, Madison, Wis., http://www.promega.com). Cells were harvested from each condition and fixed in 1% paraformaldehyde for 20 min on ice before permeabilizing them with ice-cold 70% ethanol at […] overnight. Subsequently, the cells were washed with PBS and incubated in 80 μl of equilibration buffer for 5 min at room temperature. The cells were pelleted down and resuspended in 50 μl of incubation buffer containing nucleotides and rTdT enzyme, followed by incubation at 37° C. for 1 h. The reaction was quenched using 20 mM EDTA and cells were resuspended in 0.1% Triton/0.5% BSA/PBS before analyzing on the flow cytometer. The green fluorescence of fluorescein-12-dUTP was detected in the FL1 channel."}, "hESC [4]": {"tested_on": "hESC", "experiment": "Detection of caspase-3 activity / annexin V, hESC", "settings": "100 μM peptide, 24 hours", "protocol": "(§2) To detect caspase-3 activity in treated hESC, cells grown in 24 wells were incubated with 5 μM of NucView 488 Caspase-3 substrate (Biotium Inc, www.biotium.com) and sulforhodamine 101-annexin V (1.25 ug/ml; Biotium Inc) at room temperature for 30 min. Cells were then washed once with PBS and examined under the Olympus IX70 fluorescence microscope (Olympus, http://www.olvmousamerica.com). For flow cytometry analysis, hESC was trypinsized before resuspending cells in PBS containing caspase-3 substrate and annexin V reagents."}, "HES-3": {"tested_on": "HES-3", "experiment": "Growth curve of HES-3 cultures (viable cell number vs time)", "protocol": "Human embryonic stem cell line, HES-3, was obtained from ES Cell International (ESI, Singapore, http://escellinternational.com). The cells were cultured at 37° C., 5% CO2, on matrigel-coated culture dishes supplemented with conditioned media from immortalized mouse embryonic fibroblast, ΔE-MEF. The media used for culturing hESC was Knockout (KO) media containing 85% KO-DMEM (DMEM, Dulbecco's modified Eagle's medium) supplemented with 15% KO serum replacer, 1 mM L-glutamine, 1% non-essential amino acids, 0.1 mM 2-mercaptoethanol, and 10 ng/ml basic fibroblast growth factor (FGF-2; Invitrogen, Carlsbad, Calif., http://www.invitrogen.com). The cells were treated with collagenase IV (200 U/ml) or TrypLE Express solution (Invitrogen) and dissociated into small clumps or single cells respectively by repeated pipetting. The cells were then reseeded onto matrigel-coated plates at a passage ratio 1:4.\nas §1"}, "ESIMR90 cells": {"tested_on": "ESIMR90 cells", "experiment": "Detection of caspase-3 activity / annexin V, ESIMR90", "settings": "100 μM peptide, 24 hours", "protocol": "as §2"}, "[5]": {"settings": "100 μM of peptide, clump cultures"}}, "note": "Like-named read-outs stand apart in the source and are kept apart here. Bridge positions count the residues as written; N and C are the ends. Square brackets hold non-standard residues; d marks the D form. Peptide text beside a SMILES is read from it.", "data": [{"smiles": "CC(C)C[C@H](NC(=O)[C@H](CCCCN)NC(=O)CNC(=O)CNC(=O)[C@H](CS)NC(=O)[C@H](CC(=O)O)NC(=O)[C@H](CCCCN)NC(=O)[C@H](C)NC(=O)[C@H](CCCNC(=N)N)NC(=O)CNC(=O)CNC(=O)[C@H](CCCCN)NC(=O)[C@@H](N)CS)C(=O)N[C@@H](C)C(=O)N[C@@H](CCCCN)C(=O)N[C@@H](CC(C)C)C(=O)N[C@@H](C)C(=O)N[C@@H](CCCCN)C(=O)N[C@@H](CCCCN)C(=O)N[C@@H](CC(C)C)C(=O)N[C@@H](C)C(=O)N[C@@H](CCCCN)C(=O)N[C@@H](CC(C)C)C(=O)N[C@@H](C)C(=O)N[C@@H](CCCCN)C(=O)O", "note": "[L-form peptide] (H-CKGGRAKDCGGKLAKLAKKLAKLAK-OH; N-terminus and C-terminus assumed)", "values": [{"measurement": "killing efficiency on hESC, D-form vs L-form", "setting": "HES-3 cells", "value": "comparable"}, {"measurement": "hESC viability", "setting": "HES-3 cells; human, 120 hr", "value": "< 5", "unit": "%"}]}, {"smiles": "Cc1c[nH]c(/C=C2\\C(=O)Nc3ccccc32)c1CCC(=O)O", "note": "[SU5402]", "values": [{"measurement": "surface expression of PHB", "setting": "[1]", "value": "down-regulated surface expression of PHB"}, {"measurement": "ERK phosphorylation", "setting": "[2]", "value": "suppression of ERK phosphorylation"}]}, {"smiles": "CC(C)C[C@@H](NC(=O)[C@@H](CCCCN)NC(=O)CNC(=O)CNC(=O)[C@@H]1CSSC[C@H](N)C(=O)N[C@@H](CCCCN)C(=O)NCC(=O)NCC(=O)N[C@@H](CCCNC(=N)N)C(=O)N[C@@H](C)C(=O)N[C@@H](CCCCN)C(=O)N[C@@H](CC(=O)O)C(=O)N1)C(=O)N[C@H](C)C(=O)N[C@H](CCCCN)C(=O)N[C@H](CC(C)C)C(=O)N[C@H](C)C(=O)N[C@H](CCCCN)C(=O)N[C@H](CCCCN)C(=O)N[C@H](CC(C)C)C(=O)N[C@H](C)C(=O)N[C@H](CCCCN)C(=O)N[C@H](CC(C)C)C(=O)N[C@H](C)C(=O)N[C@H](CCCCN)C(=O)O", "note": "[peptide, CKGGRAKDC-GG-D(KLAKLAK)2] (H-CKGGRAKDCGG[dK][dL][dA][dK][dL][dA][dK][dK][dL][dA][dK][dL][dA][dK]-OH; disulfide 1-9; N-terminus and C-terminus assumed)", "values": [{"measurement": "time of incubation to cell death via apoptosis", "setting": "ESIMR90; IPSCs", "value": "≤ 48", "unit": "h"}, {"measurement": "relative viability", "setting": "ESIMR90; human, 72 h", "value": 33.4, "unit": "%"}, {"measurement": "growth rate μ", "setting": "IMR-90 cells; 100 μM of peptide", "value": 0.0167, "unit": "h⁻¹"}, {"measurement": "cell killing effect", "setting": "IMR-90 cells; IMR-90 cells, which do not express PHB on membrane", "value": "minimal cell killing effect"}, {"measurement": "DNA fragmentation compared to the control", "setting": "hESC [3]", "value": "significant increase in DNA fragmentation"}, {"measurement": "population exhibiting elevated caspase-3 activity", "setting": "hESC [4]; flow cytometry", "value": 71.1, "unit": "%"}, {"measurement": "caspase-3 substrate and Annexin V staining", "setting": "hESC [4]; fluorescence microscopy", "value": "exhibited caspase-3 activity and phosphatidylserine (PS) externalization"}, {"measurement": "killing efficiency on hESC, D-form vs L-form", "setting": "HES-3 cells", "value": "comparable"}, {"measurement": "toxic effect on hESC", "setting": "HES-3 cells; concentrations less than 100 μM", "value": "minimal"}, {"measurement": "time of incubation to cell death via apoptosis", "setting": "HES-3 cells; hESC", "value": "≤ 48", "unit": "h"}, {"measurement": "relative viability", "setting": "HES-3 cells; human, 24 h", "value": 84.7, "unit": "%"}, {"measurement": "relative viability", "setting": "HES-3 cells; human, 72 h", "value": 52.2, "unit": "%"}, {"measurement": "relative viability", "setting": "HES-3 cells; human, 120 h", "value": 21.7, "unit": "%"}, {"measurement": "viability", "setting": "HES-3 cells; human, 120 hr, 150 µM", "value": "< 10", "unit": "%"}, {"measurement": "viability", "setting": "HES-3 cells; human, 120 hr, 200 µM", "value": "< 10", "unit": "%"}, {"measurement": "apoptotic killing effect, dose dependence", "setting": "HES-3 cells; titrated over 20 μM to 200 μM", "value": "concentration-dependent"}, {"measurement": "initiation of death phase", "setting": "HES-3; [5]", "value": 70, "unit": "h"}, {"measurement": "td", "setting": "HES-3; [5]", "value": 61.3, "unit": "h"}, {"measurement": "specific growth rate", "setting": "HES-3; 100 μM of peptide, clump cultures, over 7 days", "value": 0.0113, "unit": "h⁻¹"}, {"measurement": "growth compared to the control", "setting": "HES-3; peptide supplemented to TrypLE passaged cultures", "value": "minimal growth"}, {"measurement": "population exhibiting elevated caspase-3 activity", "setting": "ESIMR90 cells; flow cytometry", "value": 66.3, "unit": "%"}, {"measurement": "caspase-3 substrate and Annexin V staining", "setting": "ESIMR90 cells; fluorescence microscopy", "value": "exhibited caspase-3 activity and phosphatidylserine (PS) externalization"}]}]}
